The values below come from ChEMBL document CHEMBL1123733, “Structure-activity relationship in PAF-acether. 3. Hydrophobic contribution to agonistic activity” (J Med Chem, 1987).

Bounds are passed on as bounds.

Test [1] is filed under the species Oryctolagus cuniculus. The experiment in a line: Relative aggregant activity in rabbit platelets was determined. It counts as functional.
For test [2], the species on record is Oryctolagus cuniculus. The experiment in a line: Compound was tested in vitro for its ability to aggregate platelet-rich plasma (PRP) in rabbit. It counts as functional.
For test [3], the system named is Cavia porcellus. The experiment in a line: Compound was evaluated for in vivo bronchoconstriction in anesthetized guinea pig (3 cm H2O). The format is functional, Lung.
The test system of test [4] is Cavia porcellus. Description: Compound was evaluated for in vivo thrombocytopenia effect in anesthetized guinea pig. It counts as functional, organism-based.
The species entered for test [5] is Oryctolagus cuniculus. The experiment in a line: Compound was tested in vitro for its ability to aggregate washed rabbit platelets (WP). It counts as functional.
The test system of a further test is Rattus norvegicus. Description: (§1) Compound is evaluated for hypotensive activity in anesthetized rat (in vivo). The format is functional.
Test [6] is described as follows: as §1. The format is functional.

Consider `CCCCCCCCCCCCCCCCCCOCC(COP(=O)([O-])OCC[N+](C)(C)C)OC(C)=O` (stereo not drawn), for which the RA in the test listed under Oryctolagus cuniculus [1] came to 1. In addition, the EC50 in the test listed under Oryctolagus cuniculus [2] is 57 nM.

`CCCCCCCCCCCCCCCC(=O)OCC(COP(=O)([O-])OCC[N+](C)(C)C)OC(C)=O` (stereo not drawn) yielded an RA in the test filed under Oryctolagus cuniculus [1] of 0.009.

Regarding `CCCCCCCCCCCCCCCCCCC(COP(=O)([O-])OCC[N+](C)(C)C)OC(C)=O` (stereo not drawn), the RA in the test listed under Oryctolagus cuniculus [1] worked out at 0.022.

For the compound `CCCCCCCCCCOc1ccc(COCC(COP(=O)([O-])OCC[N+](C)(C)C)OC(C)=O)cc1` (stereo not drawn), the RA in the test listed under Oryctolagus cuniculus [1] came to 0.01.

For `CCCCCC/C=C/CCCCCCCCOCC(COP(=O)([O-])OCC[N+](C)(C)C)OC(C)=O` (stereo not drawn), in the test listed under Oryctolagus cuniculus [1], the RA is recorded as 1.6.

Regarding `CCCCCCOCC(COP(=O)([O-])OCC[N+](C)(C)C)OC(C)=O` (stereo not drawn), the Activity with Cavia porcellus [3] is 2.6e-08 M/kg. In addition, the EC50 in the test on Cavia porcellus [4] is 1e-07 M/kg; in the test listed under Oryctolagus cuniculus [2], 17000 nM; in the test listed under Oryctolagus cuniculus [5], 310 nM. This compound registered an RA in the test listed under Oryctolagus cuniculus [1] of 0.003. Also, the EC30 in the test on Rattus norvegicus came out at 7e-07 M/kg.

In turn, `CCCCOCC(COP(=O)([O-])OCC[N+](C)(C)C)OC(C)=O` (stereo not drawn) showed an Activity with Cavia porcellus [3] of 1e-06 M/kg. Further, the EC50 in the test on Cavia porcellus [4] worked out at 1e-06 M/kg; in the test listed under Oryctolagus cuniculus [2], 100000 nM; in the test listed under Oryctolagus cuniculus [5] it was 1800 nM. The compound also showed an RA in the test listed under Oryctolagus cuniculus [1] of 0.001. Moreover, in the test on Rattus norvegicus, the EC30 amounted to 1.1e-06 M/kg.

As for `CCCCCCCCCCCCCCCCCC(=O)OCC(COP(=O)([O-])OCC[N+](C)(C)C)OC(C)=O` (stereo not drawn), the RA in the test filed under Oryctolagus cuniculus [1] was 0.004.

Consider `CCCCC/C=C/C/C=C/CCCCCCCCOCC(COP(=O)([O-])OCC[N+](C)(C)C)OC(C)=O` (stereo not drawn), for which the RA in the test listed under Oryctolagus cuniculus [1] is on record as 2.667.

In turn, `CCCCCCCCCCCCCCCCCCSCC(COP(=O)([O-])OCC[N+](C)(C)C)OC(C)=O` (stereo not drawn) came in with an RA in the test listed under Oryctolagus cuniculus [1] of 0.

In the case of `COCC(COP(=O)([O-])OCC[N+](C)(C)C)OC(C)=O` (stereo not drawn), in the test with Cavia porcellus [3], the Activity is >1.6e-06 M/kg. The EC50 with Cavia porcellus [4] was > 1.6e-06 M/kg; in the test filed under Oryctolagus cuniculus [2], > 100000 nM. The EC30 with Rattus norvegicus is >1.6e-06 M/kg.

Turning to `CCCCCCCCCCCCCCCCCCCCOCC(COP(=O)([O-])OCC[N+](C)(C)C)OC(C)=O` (stereo not drawn), the Activity with Cavia porcellus [3] amounted to 1.3e-09 M/kg. In addition, the figures for the EC50 in the test on Cavia porcellus [4], in the test listed under Oryctolagus cuniculus [2] and in the test listed under Oryctolagus cuniculus [5] were 1.8e-10 M/kg, 190 nM and 0.33 nM, respectively. The RA in the test filed under Oryctolagus cuniculus [1] is reported as 0.8. For the same compound, the EC30 with Rattus norvegicus came to 2.4e-09 M/kg.

Turning to `CCCCCCCCCCCCCCCCCC(COP(=O)([O-])OCC[N+](C)(C)C)OC(C)=O` (stereo not drawn), the RA in the test listed under Oryctolagus cuniculus [1] is on record as 0.005.

On to `CCCCCCCCCCCCOCC(COP(=O)([O-])OCC[N+](C)(C)C)OC(C)=O` (stereo not drawn), for which the Activity in the test on Cavia porcellus [3] stood at 1.2e-10 M/kg. Moreover, the EC50 with Cavia porcellus [4] worked out at 6e-10 M/kg; in the test listed under Oryctolagus cuniculus [2], 230 nM; in the test listed under Oryctolagus cuniculus [5], 0.45 nM. In the test filed under Oryctolagus cuniculus [1], this compound returned an RA of 1.248. In the test on Rattus norvegicus, this compound had an EC30 of 3.3e-09 M/kg.

As to `CCCCCCCCCCCCCCCCCCOC[C@H](COP(=O)([O-])OCC[N+](C)(C)C)OC(C)=O`, in the test on Cavia porcellus [3], the Activity was 1.8e-10 M/kg. In addition, the EC50 in the test on Cavia porcellus [4] amounted to 1.8e-10 M/kg; in the test listed under Oryctolagus cuniculus [2], 19 nM. In the test on Rattus norvegicus, this compound returned an EC30 of 4.9e-10 M/kg.

In the test filed under Oryctolagus cuniculus [1], `CCCCCCCCCCCCCCCCc1ccccc1OCC(COP(=O)([O-])OCC[N+](C)(C)C)OC(C)=O` (stereo not drawn) registered an RA of 0.002.

In the test listed under Oryctolagus cuniculus [1], `CCCCCCCCCCCCCCCCOCCC(COP(=O)([O-])OCC[N+](C)(C)C)OC(C)=O` (stereo not drawn) came in with an RA of 0.015.

For `CCCCCCCCCCCCCCc1cccc(OCC(COP(=O)([O-])OCC[N+](C)(C)C)OC(C)=O)c1` (stereo not drawn), the RA in the test listed under Oryctolagus cuniculus [1] was 0.364.

Turning to `CCCCCCCCCCOCCOCCOCC(COP(=O)([O-])OCC[N+](C)(C)C)OC(C)=O` (stereo not drawn), the RA in the test listed under Oryctolagus cuniculus [1] worked out at 0.28.

Turning to `CCCCCCCCCCOCC(COP(=O)([O-])OCC[N+](C)(C)C)OC(C)=O` (stereo not drawn), the Activity in the test with Cavia porcellus [3] worked out at 2.5e-10 M/kg. The results for the EC50 with Cavia porcellus [4], in the test listed under Oryctolagus cuniculus [2] and in the test filed under Oryctolagus cuniculus [5] were 6e-10 M/kg, 1200 nM and 8.5 nM, respectively. This compound also returned an RA in the test filed under Oryctolagus cuniculus [1] of 1.048. For the same compound, in test [6], the EC30 came out at 7e-09 M/kg.

In the test listed under Oryctolagus cuniculus [1], `CCCCCCCCCCCCCCCCCCCCC(COP(=O)([O-])OCC[N+](C)(C)C)OC(C)=O` (stereo not drawn) displayed an RA of 0.

In the test listed under Oryctolagus cuniculus [1], `CCCCCCCCCCOCc1ccc(OCC(COP(=O)([O-])OCC[N+](C)(C)C)OC(C)=O)cc1` (stereo not drawn) registered an RA of 0.01.

On to `COCCOCCOCCCCCCCCOCC(COP(=O)([O-])OCC[N+](C)(C)C)OC(C)=O` (stereo not drawn), for which the RA in the test filed under Oryctolagus cuniculus [1] was determined as 0.007.

On to `CCCCCCCCCCCCCCc1ccc(OCC(COP(=O)([O-])OCC[N+](C)(C)C)OC(C)=O)cc1` (stereo not drawn), for which the RA in the test filed under Oryctolagus cuniculus [1] is listed as 0.302.

As for `CCCCCCCC/C=C/CCCCCCCCOCC(COP(=O)([O-])OCC[N+](C)(C)C)OC(C)=O` (stereo not drawn), the RA in the test filed under Oryctolagus cuniculus [1] is 2.

The compound `CCCCCCCCCCCCCCCCOCC(COP(=O)([O-])OCC[N+](C)(C)C)OC(C)=O` (stereo not drawn) [PLATELET ACTIVATING FACTOR] came in with an Activity in the test with Cavia porcellus [3] of 5e-11 M/kg. The figures for the EC50 in the test on Cavia porcellus [4], in the test filed under Oryctolagus cuniculus [2] and in the test listed under Oryctolagus cuniculus [5] were 2e-10 M/kg, 45 nM and 0.2 nM, respectively. In addition, the RA in the test filed under Oryctolagus cuniculus [1] stood at 1.268. Further, the EC30 with Rattus norvegicus is 1.3e-10 M/kg.
